Results reported in the kinase profiling compilation of Christmann-Franck et al. (2016).

Legend:
Experiment in all cases: radiometric filter-binding kinase assay, Kinase HotSpot
Details in all cases: compound 0.5 µM; ATP 10 µM
CSNK2A1 (human) = CSNK2A1 (human) (UniProt P68400)
CSK (human) = CSK (human) (UniProt P41240)
CAMK2D (human) = CAMK2D (human) (UniProt Q13557)
ROCK1 (human) = ROCK1 (human) (UniProt Q13464)
PTK2B (human) = PTK2B (human) (UniProt Q14289)
AXL (human) = AXL (human) (UniProt P30530)
MAP3K3 (human) = MAP3K3 (human) (UniProt Q99759)
NEK11 (human) = NEK11 (human) (UniProt Q8NG66)
MAPK8 (human) = MAPK8 (human) (UniProt P45983)
MAP3K5 (human) = MAP3K5 (human) (UniProt Q99683)
CDK6 CCND1 (human) = CDK6 CCND1 (human) (UniProt Q00534+P24385)
DYRK3 (human) = DYRK3 (human) (UniProt O43781)
STK33 (human) = STK33 (human) (UniProt Q9BYT3)
MAPK11 (human) = MAPK11 (human) (UniProt Q15759)
MAP4K2 (human) = MAP4K2 (human) (UniProt Q12851)
BTK (human) = BTK (human) (UniProt Q06187)
FER (human) = FER (human) (UniProt P16591)
CAMK1D (human) = CAMK1D (human) (UniProt Q8IU85)
PRKD3 (human) = PRKD3 (human) (UniProt O94806)
DAPK1 (human) = DAPK1 (human) (UniProt P53355)
CDK2 CCNA2 (human) = CDK2 CCNA2 (human) (UniProt P24941+P20248)
PAK6 (human) = PAK6 (human) (UniProt Q9NQU5)
INSR (human) = INSR (human) (UniProt P06213)
MAP3K8 (human) = MAP3K8 (human) (UniProt P41279)
EPHA4 (human) = EPHA4 (human) (UniProt P54764)
PRKD1 (human) = PRKD1 (human) (UniProt Q15139)
STK10 (human) = STK10 (human) (UniProt O94804)
[1] = target: TYK2 JH1 catalytic (human) (UniProt P29597)
PBK (human) = PBK (human) (UniProt Q96KB5)
CAMK2A (human) = CAMK2A (human) (UniProt Q9UQM7)
SRPK2 (human) = SRPK2 (human) (UniProt P78362)
AKT3 (human) = AKT3 (human) (UniProt Q9Y243)
PDGFRB (human) = PDGFRB (human) (UniProt P09619)
RPS6KA3 KD1 KD2 (human) = RPS6KA3 KD1 KD2 (human) (UniProt P51812)
TAOK3 (human) = TAOK3 (human) (UniProt Q9H2K8)
ACVR1B (human) = ACVR1B (human) (UniProt P36896)
AURKC (human) = AURKC (human) (UniProt Q9UQB9)
MAP3K14 (human) = MAP3K14 (human) (UniProt Q99558)
SLK (human) = SLK (human) (UniProt Q9H2G2)
LCK (human) = LCK (human) (UniProt P06239)

Chain of DYRK3 (human) (O43781 whole entry, looked up): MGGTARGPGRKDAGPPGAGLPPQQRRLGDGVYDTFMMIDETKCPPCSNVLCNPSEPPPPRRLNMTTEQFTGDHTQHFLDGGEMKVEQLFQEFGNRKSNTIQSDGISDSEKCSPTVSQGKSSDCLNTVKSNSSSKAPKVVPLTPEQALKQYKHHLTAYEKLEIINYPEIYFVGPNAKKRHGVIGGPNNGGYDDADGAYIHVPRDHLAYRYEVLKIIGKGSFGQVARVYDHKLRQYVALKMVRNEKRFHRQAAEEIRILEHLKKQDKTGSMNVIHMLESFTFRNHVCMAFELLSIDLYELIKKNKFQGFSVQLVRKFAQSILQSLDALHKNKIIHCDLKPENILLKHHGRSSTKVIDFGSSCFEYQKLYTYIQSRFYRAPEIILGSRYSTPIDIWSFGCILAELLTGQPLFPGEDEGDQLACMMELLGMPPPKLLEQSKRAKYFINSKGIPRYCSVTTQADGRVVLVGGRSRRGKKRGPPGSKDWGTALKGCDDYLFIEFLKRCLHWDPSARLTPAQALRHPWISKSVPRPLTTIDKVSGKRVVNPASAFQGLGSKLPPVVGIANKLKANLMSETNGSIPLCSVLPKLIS
Chain of CAMK2D (human) (Q13557 whole entry, looked up): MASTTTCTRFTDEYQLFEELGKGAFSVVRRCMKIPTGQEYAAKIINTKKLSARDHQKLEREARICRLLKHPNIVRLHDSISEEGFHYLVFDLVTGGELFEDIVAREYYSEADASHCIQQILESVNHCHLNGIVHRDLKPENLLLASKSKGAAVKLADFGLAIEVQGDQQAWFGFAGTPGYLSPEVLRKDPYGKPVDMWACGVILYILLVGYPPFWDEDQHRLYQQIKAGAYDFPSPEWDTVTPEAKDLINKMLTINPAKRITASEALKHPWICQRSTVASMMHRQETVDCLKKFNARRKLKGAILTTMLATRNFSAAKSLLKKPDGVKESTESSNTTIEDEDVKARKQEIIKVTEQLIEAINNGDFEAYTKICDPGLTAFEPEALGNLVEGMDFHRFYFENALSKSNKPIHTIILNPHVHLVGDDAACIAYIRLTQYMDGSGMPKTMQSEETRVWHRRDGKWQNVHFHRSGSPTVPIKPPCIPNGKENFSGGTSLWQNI
Chain of SLK (human) (Q9H2G2 whole entry, looked up): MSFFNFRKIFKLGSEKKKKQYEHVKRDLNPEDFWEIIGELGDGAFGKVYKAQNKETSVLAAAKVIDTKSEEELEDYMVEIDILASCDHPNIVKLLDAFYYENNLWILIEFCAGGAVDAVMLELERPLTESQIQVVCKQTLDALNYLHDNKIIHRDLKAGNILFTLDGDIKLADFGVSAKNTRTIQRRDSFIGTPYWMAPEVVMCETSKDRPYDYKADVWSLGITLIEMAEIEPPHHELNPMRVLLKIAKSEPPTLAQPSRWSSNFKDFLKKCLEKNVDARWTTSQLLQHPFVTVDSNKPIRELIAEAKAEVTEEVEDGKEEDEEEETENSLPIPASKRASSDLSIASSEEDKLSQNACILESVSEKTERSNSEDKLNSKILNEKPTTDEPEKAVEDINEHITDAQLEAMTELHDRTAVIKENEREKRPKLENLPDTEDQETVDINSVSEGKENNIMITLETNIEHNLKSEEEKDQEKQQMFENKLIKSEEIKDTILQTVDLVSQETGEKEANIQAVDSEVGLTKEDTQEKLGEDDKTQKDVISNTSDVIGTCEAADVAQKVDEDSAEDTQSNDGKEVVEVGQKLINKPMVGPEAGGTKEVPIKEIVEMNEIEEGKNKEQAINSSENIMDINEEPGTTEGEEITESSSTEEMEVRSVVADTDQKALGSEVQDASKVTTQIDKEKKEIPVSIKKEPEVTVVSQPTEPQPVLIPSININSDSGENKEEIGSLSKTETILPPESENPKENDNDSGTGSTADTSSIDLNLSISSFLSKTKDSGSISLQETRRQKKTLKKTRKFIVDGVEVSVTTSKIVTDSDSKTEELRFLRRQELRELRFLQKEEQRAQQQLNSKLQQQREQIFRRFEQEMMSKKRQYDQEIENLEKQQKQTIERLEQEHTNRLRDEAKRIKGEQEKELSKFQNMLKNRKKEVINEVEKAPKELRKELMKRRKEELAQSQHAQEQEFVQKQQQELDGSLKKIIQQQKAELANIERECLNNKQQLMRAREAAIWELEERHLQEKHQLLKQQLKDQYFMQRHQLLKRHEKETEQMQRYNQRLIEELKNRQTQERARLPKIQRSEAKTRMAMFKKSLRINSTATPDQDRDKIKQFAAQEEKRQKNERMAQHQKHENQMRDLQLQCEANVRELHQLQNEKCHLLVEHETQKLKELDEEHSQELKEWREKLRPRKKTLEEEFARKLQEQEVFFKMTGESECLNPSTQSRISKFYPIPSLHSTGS
Chain of CSNK2A1 (human) (P68400 whole entry, looked up): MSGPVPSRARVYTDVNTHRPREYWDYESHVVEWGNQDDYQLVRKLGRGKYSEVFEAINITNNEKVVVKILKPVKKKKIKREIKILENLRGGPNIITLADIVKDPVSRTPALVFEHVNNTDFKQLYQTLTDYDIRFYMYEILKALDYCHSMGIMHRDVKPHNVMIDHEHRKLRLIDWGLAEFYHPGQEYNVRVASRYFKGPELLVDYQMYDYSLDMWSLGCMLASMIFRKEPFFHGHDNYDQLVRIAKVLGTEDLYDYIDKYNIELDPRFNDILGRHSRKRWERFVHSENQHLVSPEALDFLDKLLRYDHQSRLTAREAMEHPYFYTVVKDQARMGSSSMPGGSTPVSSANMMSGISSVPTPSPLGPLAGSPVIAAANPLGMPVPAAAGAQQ
Chain of STK10 (human) (O94804 whole entry, looked up): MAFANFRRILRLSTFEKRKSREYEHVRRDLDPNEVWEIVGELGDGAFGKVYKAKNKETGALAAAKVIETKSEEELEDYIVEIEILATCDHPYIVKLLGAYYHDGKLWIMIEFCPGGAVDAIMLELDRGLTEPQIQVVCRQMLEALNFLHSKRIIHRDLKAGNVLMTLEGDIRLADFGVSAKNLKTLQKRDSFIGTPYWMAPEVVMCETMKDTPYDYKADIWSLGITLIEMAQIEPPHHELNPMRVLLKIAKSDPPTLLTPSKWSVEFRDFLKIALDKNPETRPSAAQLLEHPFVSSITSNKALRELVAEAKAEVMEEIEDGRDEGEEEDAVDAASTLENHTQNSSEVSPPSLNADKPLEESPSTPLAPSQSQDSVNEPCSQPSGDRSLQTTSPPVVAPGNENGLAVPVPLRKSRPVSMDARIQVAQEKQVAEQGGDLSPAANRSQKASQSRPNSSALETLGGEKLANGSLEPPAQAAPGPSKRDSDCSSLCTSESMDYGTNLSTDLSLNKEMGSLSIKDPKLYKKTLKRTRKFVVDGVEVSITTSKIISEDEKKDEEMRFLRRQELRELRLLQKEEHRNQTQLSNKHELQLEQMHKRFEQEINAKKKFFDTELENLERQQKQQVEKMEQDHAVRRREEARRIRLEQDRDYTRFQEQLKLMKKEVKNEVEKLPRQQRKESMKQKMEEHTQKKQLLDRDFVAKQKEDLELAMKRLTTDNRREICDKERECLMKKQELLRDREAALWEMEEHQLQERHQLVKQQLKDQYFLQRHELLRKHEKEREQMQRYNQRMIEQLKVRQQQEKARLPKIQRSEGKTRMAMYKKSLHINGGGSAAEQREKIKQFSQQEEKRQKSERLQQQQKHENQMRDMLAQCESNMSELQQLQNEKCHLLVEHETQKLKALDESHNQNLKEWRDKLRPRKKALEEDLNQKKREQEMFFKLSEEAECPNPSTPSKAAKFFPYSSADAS
Chain of PTK2B (human) (Q14289 whole entry, looked up): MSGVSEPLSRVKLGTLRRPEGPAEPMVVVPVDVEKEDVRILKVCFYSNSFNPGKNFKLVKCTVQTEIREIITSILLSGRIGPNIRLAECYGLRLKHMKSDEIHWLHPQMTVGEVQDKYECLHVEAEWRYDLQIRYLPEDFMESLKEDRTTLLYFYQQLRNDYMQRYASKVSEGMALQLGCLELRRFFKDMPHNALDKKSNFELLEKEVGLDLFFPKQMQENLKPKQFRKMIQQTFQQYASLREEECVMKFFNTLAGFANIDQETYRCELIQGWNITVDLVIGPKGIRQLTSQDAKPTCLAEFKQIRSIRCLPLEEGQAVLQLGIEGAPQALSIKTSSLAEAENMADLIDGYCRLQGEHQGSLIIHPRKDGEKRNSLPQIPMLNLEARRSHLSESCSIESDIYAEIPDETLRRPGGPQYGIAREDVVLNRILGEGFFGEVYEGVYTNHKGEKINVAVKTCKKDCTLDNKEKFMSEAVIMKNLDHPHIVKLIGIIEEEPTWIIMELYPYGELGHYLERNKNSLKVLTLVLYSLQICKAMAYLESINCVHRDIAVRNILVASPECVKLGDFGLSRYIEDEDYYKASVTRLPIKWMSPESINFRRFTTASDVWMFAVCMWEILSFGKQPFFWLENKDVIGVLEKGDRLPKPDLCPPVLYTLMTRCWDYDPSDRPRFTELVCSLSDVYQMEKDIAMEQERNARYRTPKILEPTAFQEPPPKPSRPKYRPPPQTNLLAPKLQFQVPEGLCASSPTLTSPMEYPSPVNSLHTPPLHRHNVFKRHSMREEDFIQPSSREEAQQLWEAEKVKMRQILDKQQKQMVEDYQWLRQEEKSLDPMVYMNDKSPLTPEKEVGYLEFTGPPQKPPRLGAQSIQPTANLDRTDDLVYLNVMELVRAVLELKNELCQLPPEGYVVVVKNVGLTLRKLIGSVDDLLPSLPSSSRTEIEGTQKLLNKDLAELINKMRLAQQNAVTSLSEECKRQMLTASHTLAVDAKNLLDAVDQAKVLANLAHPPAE
Chain of PBK (human) (Q96KB5 whole entry, looked up): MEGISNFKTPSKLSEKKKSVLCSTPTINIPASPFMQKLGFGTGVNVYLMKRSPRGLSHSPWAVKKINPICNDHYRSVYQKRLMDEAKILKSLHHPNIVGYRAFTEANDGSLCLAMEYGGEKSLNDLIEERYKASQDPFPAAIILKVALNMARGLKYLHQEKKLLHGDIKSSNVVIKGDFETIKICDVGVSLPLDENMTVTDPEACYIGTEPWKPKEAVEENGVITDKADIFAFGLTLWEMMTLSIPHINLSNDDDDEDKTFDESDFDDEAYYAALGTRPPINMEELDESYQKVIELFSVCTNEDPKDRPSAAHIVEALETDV

SMILES | residual activity (CSNK2A1 (human)) | residual activity (CSK (human)) | residual activity (CAMK2D (human)) | residual activity (ROCK1 (human)) | residual activity (PTK2B (human)) | residual activity (AXL (human)) | residual activity (MAP3K3 (human)) | residual activity (NEK11 (human)) | residual activity (MAPK8 (human)) | residual activity (MAP3K5 (human)) | residual activity (CDK6 CCND1 (human)) | residual activity (DYRK3 (human)) | residual activity (STK33 (human)) | residual activity (MAPK11 (human)) | residual activity (MAP4K2 (human)) | residual activity (BTK (human)) | residual activity (FER (human)) | residual activity (CAMK1D (human)) | residual activity (PRKD3 (human)) | residual activity (DAPK1 (human)) | other results
O=C(Nc1cccc(Nc2nccc(Nc3cccc(C(F)(F)F)c3)n2)c1)C1CC1 | 94.1% | 97.4% | 93.5% | 101% | 90.9% | 104% | 97.9% | 102% | 85.7% | 111% | 93.4% | 101% | 81.5% | 103% | 112% | 83.7% | 93% | 100% | 91.9% | 83.5% | residual activity (CDK2 CCNA2 (human)): 98.2%; residual activity (PAK6 (human)): 100%; residual activity (INSR (human)): 89.8%; residual activity (MAP3K8 (human)): 111%; residual activity (EPHA4 (human)): 81%; residual activity (PRKD1 (human)): 94.1%; residual activity (STK10 (human)): 90.1%; residual activity [1]: 42.5%; residual activity (PBK (human)): 101%; residual activity (CAMK2A (human)): 98%; residual activity (SRPK2 (human)): 104%; residual activity (AKT3 (human)): 108%; residual activity (PDGFRB (human)): 101%; residual activity (RPS6KA3 KD1 KD2 (human)): 100%; residual activity (TAOK3 (human)): 110%; residual activity (ACVR1B (human)): 110%; residual activity (AURKC (human)): 80.8%; residual activity (MAP3K14 (human)): 109%; residual activity (SLK (human)): 92.9%
c1ccc(-c2n[nH]c3c2oc2ccccc23)cc1 | 87.2% | 92.6% | 94.5% | 99.1% | 96.8% | 101% | 94.7% | 103% | 79.6% | 97.4% | 90.4% | 93% | 96.5% | 95.7% | 61.8% | 96.4% | 103% | 92.9% | 99.6% | 71% | residual activity (LCK (human)): 99.3%; residual activity (CDK2 CCNA2 (human)): 88.1%; residual activity (PAK6 (human)): 87.5%; residual activity (INSR (human)): 94.4%; residual activity (MAP3K8 (human)): 105%; residual activity (EPHA4 (human)): 95.5%; residual activity (PRKD1 (human)): 79.2%; residual activity (STK10 (human)): 108%; residual activity [1]: 89.2%; residual activity (PBK (human)): 94.8%; residual activity (CAMK2A (human)): 110%; residual activity (SRPK2 (human)): 95%; residual activity (AKT3 (human)): 84.4%; residual activity (RPS6KA3 KD1 KD2 (human)): 109%; residual activity (TAOK3 (human)): 94.8%; residual activity (ACVR1B (human)): 96.6%; residual activity (AURKC (human)): 96.7%; residual activity (MAP3K14 (human)): 71.8%; residual activity (SLK (human)): 107%
